Results: US20240225985A1, “BRIGHTENING COMPOSITIONS AND METHODS OF USE” (Alastin Skincare, Inc., priority 2021, published 2024)
Entries after “also recorded” stand apart in the source; their conditions may differ.

Legend:
[1] = system: keratinocytes; experiment: Gene expression study (RNA sequencing) in keratinocytes; type: cell-based, human; settings: 24 hours of compound exposure
Procedure: (§1) Four cell types associated with pigmentation pathways—melanocytes, keratinocytes, fibroblasts and endothelial (HUVEC) cells—were analyzed for gene expression.
(§2) To simulate the UV stimulatory pigmentation pathway process, melanocytes were pre-treated with PGE2, a normal direct consequence of UV light exposure usually emanating from exposed keratinocytes. After the 48 hour attachment culture, these melanocytes were induced with 10 uM PGE2 in melanocyte media for 24 hrs. The four primary human adult dermal cell lines were cultured and plated in well plates in triplicate and then treated with 11 different compound treatments (plus DMSO control). After 48 hours of attachment culture, the remaining fibroblasts, HUVECs and keratinocytes were treated with the test compounds listed in Table 8.
(§3) After 24 hours of compound exposure, RNA lysate preparation was carried out and samples were shipped to MedGenome for RNA extraction, library construction and sequencing to 25M paired end 100 bp reads per sample. Library prep and sequencing was completed at MedGenome.

[2] = system: melanocytes; experiment: In vitro melanocyte comparative analysis via absorbance readings (melanin production); type: cell-based; settings: for Absorbance 405 nm / Absorbance 490 nm / Absorbance 492 nm: 4 days, control = 0.0 row; for Regulation of melanogenesis (decreased absorption denoting decreased melanin formation): melanocytes, summary of Table 10
Procedure: Melanocytes were cultured in 6-well plates containing growth media. Once confluent, 2 concentrations of each of the 10 compounds were added to the cells in triplicate wells for 4 days. There were a total of eleven 6-well plates, one for each compound treatment and one for the vehicle control. Absorbance readings were taken on the lysates prepared for each well of the 6-well plates, normalizing for cells counts. The model was initially tested for accuracy and validated using hexapeptide-12 in view of strong gene expression results with melanocyte cell line in the first study—confirmation of decreased stimulation was obtained. Additional validation was carried out using MSH addition to media to confirm increased stimulation of melanin production. The following compounds used in this study are seen in Table 9.

[3] = system: endothelial (HUVEC) cells; experiment: Gene expression study (RNA sequencing) in endothelial (HUVEC) cells; type: cell-based, human; settings: 24 hours of compound exposure
Procedure: as §1, §2, §3

[4] = system: facial dyschromia and/or hyperpigmentation; experiment: Clinical study, participant questionnaire; type: in vivo, human
Description: (§4) Participants underwent up to 8 study visits: screening, baseline, and 3 follow-up visits in the main study, and a 12-week extension study extended to participants at the week 12 follow up visit, which included an additional 3 follow-up visits to be conducted over 12 weeks: week 16, 20, and a final visit at week 24. At the initial screening visit, participants were consented prior to any study procedures. Medical/aesthetic history, concomitant medications, and study eligibility were collected and assessed. The following procedures were performed at Baseline: Investigator assessments, photography, Optical Coherence Tomography (OCT) imaging of the skin (only at select sites). […] Participants were asked to return to the office for follow-up visits at 4, 8, and 12 weeks. […] Participants randomized to the topical study product continued use of the product throughout the duration of the study, along with the study provided cleanser and sunscreen to apply to their facial skin as previously instructed.

[5] = system: facial dyschromia and/or hyperpigmentation; experiment: Clinical study, investigator assessment of facial skin severity; type: in vivo, human; settings: scale 0-9
Description: Forty-three (43) participants (male and female; skin types I-IV; mean age 49.2) with mild to severe facial dyschromia and/or hyperpigmentation on the face were enrolled. Participants provided consent and agreed to limit their sun exposure for the duration of the study. Participants were required to comply with the skincare regimen and return for follow-up visits. This study population was deemed a large enough sample size for safety and efficacy. Only eligible participants were selected to participate. Participants that were enrolled and completed the 3-month study for this protocol were eligible to participate in the 3-month extension study.
as §4
(§5) The products were supplied in a kit with a number and then dispensed according to the baseline grading of dyschromia.
As summarized in Table 15, investigator assessment of facial skin severity considered the overall appearance of dyschromia, skin tone (clarity and evenness), radiance, and skin texture, on the following scale: 0=none; 1-3=mild; 4-6=moderate; 7-9=severe.

[6] = system: facial skin; settings: human, in vivo, 12 weeks
Description: Adverse events as assessed by investigators is an extremely important parameter for determining potential shortcomings of a product for treatment.

[7] = system: facial skin; experiment: Clinical study, investigator assessment of tolerability (erythema, dryness, peeling); type: in vivo, human
Description: as §4

[8] = system: facial dyschromia and/or hyperpigmentation; experiment: Clinical study, investigator mMASI scoring; type: in vivo, human
Description: as §4, §5
Investigator mMASI scoring was performed using a modified MASI scoring method depicted in FIG. 13.

[9] = system: facial skin; experiment: Clinical study, participant assessment of tolerability (burning/stinging, tingling, itching); type: in vivo, human
Description: as §4

[10] = system: hTERT-immortalized dermal melanocytes; experiment: Melanocyte assay, daily inspection of cell morphology; type: cell-based, human; settings: both concentrations of Table 11; five-day dosing period
Procedure: Once the melanocytes were 100% confluent in 6-well plates, the melanocyte growth media was removed and the melanocytes were treated with media containing the above compounds; duplicate wells for each compound/concentration listed above. The duplicate vehicle control wells were fed melanocyte growth media only or melanocyte growth media with DMSO (10 uL per 10 mL melanocyte growth media).
The cells were fed the appropriate media for the next 5 days. Each day, the cells were inspected for morphology.

[11] = higher concentration (Lactoferrin 1000, HEX-11 200, Phosphatidylserine 500, Silymarin 20, Sesamol 100, Tranexamic Acid 1000, HEX-12 4.9, ug/mL or ug/uL; Phytoene/Phytofluene 5.00%)
[12] = lower concentration (Lactoferrin 500, HEX-11 100, Phosphatidylserine 250, Silymarin 10, Sesamol 50, Tranexamic Acid 500, HEX-12 2.9, ug/mL or ug/uL; Phytoene/Phytofluene 2.50%)
[13] = change week 0 to week 12, N = 44 study product, N = 42 HQ4%
[14] = week 0 (baseline), N = 44 study product, N = 42 HQ4%
[15] = week 12, N = 44 study product, N = 42 HQ4%

## Hexapeptide-11
[1]
  melanogenesis gene activity in keratinocytes: active ingredient in melanogenesis activity; also recorded: significant effects on melanogenesis activity
[2]; [11]
  Absorbance 405 nm: 0.338
  Absorbance 490 nm: 0.227
  Absorbance 492 nm: 0.163
[2]; [12]
  Absorbance 405 nm: 0.461
  Absorbance 490 nm: 0.288
  Absorbance 492 nm: 0.209
[2]
  Regulation of melanogenesis (decreased absorption denoting decreased melanin formation): Regulation of melanogenesis was observed

## Phosphatidylserine
[3]
  activity on EDN1 and other melanogenic genes in HUVECs: potent activity; also recorded: significant effects on melanogenesis activity
[2]; [11]
  Absorbance 405 nm: 0.61
  Absorbance 490 nm: 0.38
  Absorbance 492 nm: 0.288
[2]; [12]
  Absorbance 405 nm: 0.686
  Absorbance 490 nm: 0.438
  Absorbance 492 nm: 0.338
[2]
  Regulation of melanogenesis (decreased absorption denoting decreased melanin formation): Regulation of melanogenesis was observed

## Oc1ccc(O)cc1 [HQ 4%, Hydroquinone]
[4]; Week 4
  Improved the evenness of my skin tone, % Agree or Somewhat Agree: 76.19%
  Improved the overall appearance of my skin, % Agree or Somewhat Agree: 76.19%
  Lessened the appearance of the dark spots and discoloration on my skin, % Agree or Somewhat Agree: 80.95%
  Made me feel more confident in the way my skin looks, % Agree or Somewhat Agree: 61.90%
  Made my skin look brighter and more radiant, % Agree or Somewhat Agree: 66.67%
  Made my skin look healthier, % Agree or Somewhat Agree: 61.90%
  Made my skin look more youthful, % Agree or Somewhat Agree: 42.86%
[4]; Week 8
  Improved the overall appearance of my skin, % Agree or Somewhat Agree: 85.71%
  Lessened the appearance of the dark spots and discoloration on my skin, % Agree or Somewhat Agree: 80.95%
  Made me feel more confident in the way my skin looks, % Agree or Somewhat Agree: 61.90%
  Made my skin look brighter and more radiant, % Agree or Somewhat Agree: 66.67%
  Made my skin look healthier, % Agree or Somewhat Agree: 71.43%
  Made my skin look more youthful, % Agree or Somewhat Agree: 71.43%
[4]; Week 12
  Improved the evenness of my skin tone, % Agree or Somewhat Agree: 85.71%
  Improved the overall appearance of my skin, % Agree or Somewhat Agree: 85.71%
  Lessened the appearance of the dark spots and discoloration on my skin, % Agree or Somewhat Agree: 76.19%
  Made me feel more confident in the way my skin looks, % Agree or Somewhat Agree: 61.90%
  Made my skin look brighter and more radiant, % Agree or Somewhat Agree: 90.48%
  Made my skin look healthier, % Agree or Somewhat Agree: 85.71%
  Made my skin look more youthful, % Agree or Somewhat Agree: 71.43%
[4]; Week &
  Improved the evenness of my skin tone, % Agree or Somewhat Agree: 85.71%
[5]; change week 0 to week 12
  Dyschromia, investigator score, mean change: 0.9
  Radiance, investigator score, mean change: 0.3
  Skin tone, investigator score, mean change: 0.9
  Texture, investigator score, mean change: 0
[5]; week 0 (baseline)
  Dyschromia, investigator score, mean: 5.7
  Radiance, investigator score, mean: 5
  Skin tone, investigator score, mean: 5.5
  Texture, investigator score, mean: 4.2
[5]; week 12
  Dyschromia, investigator score, mean: 4.8
  Radiance, investigator score, mean: 4.6
  Skin tone, investigator score, mean: 4.7
  Texture, investigator score, mean: 4.2
[6]
  adverse events, percent of population: 23.8%
  total number of adverse events reported: 5
[7]; Week 4
  Dryness, percent of participants: 13.6%
  Erythema, percent of participants: 23%
  Peeling, percent of participants: 13.6%
[7]; Week 8
  Dryness, percent of participants: 14%
  Erythema, percent of participants: 14%
  Peeling, number of participants and grade: 1 mild
  Peeling, percent of participants: 4.7%
[7]; Week 12
  Dryness, number of participants and grade: 0
  Erythema, number of participants and grade: 4 minimal
  Erythema, percent of participants: 19%
  Peeling, number of participants and grade: 0
[8]; Week 12
  Left mMASI, mean: 1.8
  Left malar, mean: 6
  Right mMASI, mean: 1.9
  Right malar, mean: 6.3
  Total mMASI, mean: 5.2
[8]; change week 0 to week 12
  Left mMASI, mean change: 0.3
  Left malar, mean change: 1.1
  Right mMASI, mean change: 0.3
  Right malar, mean change: 1.1
  Total mMASI, mean change: 1
[8]; [13]
  Combined right and left mMASI, mean change: 0.3
  Combined right and left malar, mean change: 1.1
[8]; summary of Table 17
  improvement in mMASI scoring at 12 weeks versus baseline: no such improvement
[8]; week 0 (baseline)
  Left mMASI, mean: 2.2
  Left malar, mean: 7.2
  Right mMASI, mean: 2.2
  Right malar, mean: 7.4
  Total mMASI, mean: 6.1
[8]; [14]
  Combined right and left mMASI, mean: 2.2
  Combined right and left malar, mean: 7.3
[8]; [15]
  Combined right and left mMASI, mean: 1.9
  Combined right and left malar, mean: 6.2
[9]; Week 4
  Burning/Stinging, number of participants and grade: 6 minimal
  Burning/Stinging, percent of participants: 27%
  Itching, percent of participants: 36%
  Tingling, percent of participants: 18%
[9]; Week 8
  Burning/Stinging, percent of participants: 9.5%
  Itching, number of participants and grade: 1 minimal
  Itching, percent of participants: 4.7%
  Tingling, number of participants and grade: 1 mild
  Tingling, percent of participants: 4.7%
[9]; Week 12
  Burning/Stinging, number of participants and grade: 2 minimal
  Burning/Stinging, percent of participants: 9.5%
  Itching, percent of participants: 9.5%
  Tingling, number of participants and grade: 1 minimal
  Tingling, percent of participants: 4.7%
[9]; summary of Table 19
  participant-reported irritation versus the study product population: irritation is increased across all parameters

## C/C=C1/[C@H](O[C@@H]2O[C@H](CO)[C@@H](O)[C@H](O)[C@H]2O)OC=C(C(=O)OC)[C@H]1CC(=O)OCCc1ccc(O)c(O)c1 [Oleuropein]
[10]
  melanocyte morphology / survival on daily inspection: nearly all melanocytes were dead 72 hours post-initial dosing
